{"source": "patent US7456223B2", "about": "“Treatment of bruxism” (priority 2004, dated 2008)", "key": {"skeletal muscle spasm": {"tested_on": "skeletal muscle spasm", "settings": "after application", "text": "Cyclobenzaprine is a 5-HT2 receptor antagonist and its muscle relaxant effect is due to inhibition of serotonergic neurons."}, "[1]": {"settings": "taken orally; cited from earlier work"}, "[2]": {"settings": "taken orally; cited from earlier work", "remark": "listed apart in the source"}}}
{"smiles": "CN(C)CCC=C1c2ccccc2C=Cc2ccccc21", "note": "[cyclobenzaprine]", "values": [{"measurement": "time to clinical improvement (local pain and tenderness, range of motion)", "setting": "skeletal muscle spasm", "value": "≤ 20", "unit": "min"}, {"measurement": "half life", "setting": "[1]", "value": "one to three"}, {"measurement": "binding to plasma proteins", "setting": "[2]", "value": "highly bound to plasma proteins"}]}
